One test deals with T1, ACE2 (Homo sapiens, UniProt Q9BYF1).
T1 construct: purchased Sino Biological
Kind of test: Bio-layer interferometry, binding to immobilized ACE2-His. Conditions: for Kd: 1:1 binding model, KD = kdis/kon; for kon: read-out: ACE2 kon; for koff: read-out: ACE2 kdis. (In BLI a coated tip is dipped into the sample, and binding shifts an interference pattern.)

The next test deals with SARS-CoV-2 RBD peptide (Severe acute respiratory syndrome coronavirus 2, UniProt P0DTC2). Put plainly: biochemical. It is filed as binding. The conditions noted are these: for kon: read-out: RBD kon; for koff: read-out: RBD kdis.
For a further test, the target named is binding of RBD to ACE2 (Severe acute respiratory syndrome coronavirus 2, UniProt P0DTC2). Kind of test: biochemical. The arrangement: species or system SARS-CoV-2; human.
Setting [1] is: association rate, bio-layer interferometry.
The mark [2] stands for this setting: dissociation rate, bio-layer interferometry.

Like-named read-outs stand apart in the source and are kept apart here.

T1 sequence (Q9BYF1 18-805): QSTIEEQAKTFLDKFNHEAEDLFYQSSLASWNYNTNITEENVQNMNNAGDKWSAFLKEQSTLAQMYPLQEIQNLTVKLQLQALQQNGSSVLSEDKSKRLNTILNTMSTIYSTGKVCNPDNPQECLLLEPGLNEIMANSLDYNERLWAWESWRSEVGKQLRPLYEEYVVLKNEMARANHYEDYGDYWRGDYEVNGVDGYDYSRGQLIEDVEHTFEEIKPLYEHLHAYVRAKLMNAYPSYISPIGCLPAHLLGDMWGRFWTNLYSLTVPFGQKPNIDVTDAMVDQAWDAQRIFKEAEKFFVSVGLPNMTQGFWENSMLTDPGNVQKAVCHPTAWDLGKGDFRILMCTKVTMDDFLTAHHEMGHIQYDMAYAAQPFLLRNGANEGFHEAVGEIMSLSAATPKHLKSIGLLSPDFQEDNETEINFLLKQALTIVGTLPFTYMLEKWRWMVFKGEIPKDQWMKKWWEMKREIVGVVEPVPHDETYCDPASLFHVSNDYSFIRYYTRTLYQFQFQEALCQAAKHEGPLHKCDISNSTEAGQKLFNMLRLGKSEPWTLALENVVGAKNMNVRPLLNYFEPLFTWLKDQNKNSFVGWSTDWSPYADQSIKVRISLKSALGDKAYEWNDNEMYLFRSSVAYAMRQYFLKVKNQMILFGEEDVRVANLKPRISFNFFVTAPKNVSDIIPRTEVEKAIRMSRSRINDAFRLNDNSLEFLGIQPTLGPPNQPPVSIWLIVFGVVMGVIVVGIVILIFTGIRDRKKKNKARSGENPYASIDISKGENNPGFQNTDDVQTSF

In turn, `CCN(CC)Cc1cc(Nc2ccnc3cc(Cl)ccc23)ccc1O` [Amodiaquine] had a Kd at ACE2 (bio-layer interferometry) of 31.3 µM.
With `C[C@H]1[C@H](N2CCSCC2)O[C@@H]2O[C@@]3(C)CC[C@H]4[C@H](C)CC[C@@H]1[C@@]24OO3` [Artemiside], the “interaction with the RBD (result in words)” value (shortened to “interaction with the RBD”) at SARS-CoV-2 RBD peptide is recorded as “No interaction”. In addition, the kon at ACE2 (setting [1]) was 4290 M⁻¹ s⁻¹. For the same compound, binding on ACE2 (bio-layer interferometry) was put at a Kd of 124 µM. Further, the koff on ACE2 (setting [2]) worked out at 0.533 s⁻¹.
As to `C[C@H]1[C@H](N2CCS(=O)(=O)CC2)O[C@@H]2O[C@@]3(C)CC[C@H]4[C@H](C)CC[C@@H]1[C@@]24OO3` [Artemisone], the IC50 on binding of RBD to ACE2 was 63.1 ± 9.63 µM. Besides, the dissociation constant (Kd) is 3.6e-07 M at SARS-CoV-2 RBD peptide (KD for RBD), 3.63e-07 M on SARS-CoV-2 RBD peptide (RBD KD (M)) and 681 µM on ACE2 (bio-layer interferometry). Also, the kon on SARS-CoV-2 RBD peptide was found to be 8.4e+07 M⁻¹ s⁻¹; at ACE2 (setting [1]), 971 M⁻¹ s⁻¹. Further, the koff at ACE2 (setting [2]) turned out to be 0.661 s⁻¹.
As for `C[C@H]1[C@H](OC(=O)CCC(=O)O)O[C@@H]2O[C@@]3(C)CC[C@H]4[C@H](C)CC[C@@H]1[C@@]24OO3` [Artesunate], the “interaction with the RBD” value on SARS-CoV-2 RBD peptide is on record as “No interaction”. For the same compound, on ACE2, the koff turned out to be 0.0907 s⁻¹ and the kon is 1290 M⁻¹ s⁻¹.
With `COc1cc(/C=C/C(=O)CC(=O)/C=C/c2ccc(O)c(OC)c2)ccc1O` [Curcumin], the “interaction with the RBD” value on SARS-CoV-2 RBD peptide is recorded as “No interaction”. Also, at ACE2 (setting [1]), the kon is 600 M⁻¹ s⁻¹. Also, binding on ACE2 (bio-layer interferometry) was characterised by a dissociation constant (Kd) of 20.3 µM. In addition, the koff at ACE2 (setting [2]) stood at 0.0122 s⁻¹.
At SARS-CoV-2 RBD peptide (RBD KD (M)), `OC(c1cc(C(F)(F)F)nc2c(C(F)(F)F)cccc12)C1CCCCN1` (stereo not shown) [Mefloquine] registered a Kd of 0.00605 M. Moreover, at SARS-CoV-2 RBD peptide, the koff was found to be 0.861 s⁻¹ and the kon is 142 M⁻¹ s⁻¹. Moreover, on ACE2, the koff stood at 0.0312 s⁻¹ and the kon is 716 M⁻¹ s⁻¹.
On to `CN(C)c1ccc2nc3ccc(=[N+](C)C)cc-3sc2c1` [Methylene blue], for which the Kd at ACE2 (bio-layer interferometry) is 475 µM.
With `COc1ccc2nc3cc(Cl)ccc3c(Nc3cc(CN4CCCC4)c(O)c(CN4CCCC4)c3)c2n1` [Pyronaridine], the half-inhibitory concentration (IC50) on binding of RBD to ACE2 is 49.7 ± 4.19 µM. The values for the Kd on SARS-CoV-2 RBD peptide (KD for RBD), at SARS-CoV-2 RBD peptide (RBD KD (M)) and at ACE2 (bio-layer interferometry) were 5.7e-05 M, 5.68e-05 M and 51.3 µM, respectively. Also, the koff on SARS-CoV-2 RBD peptide was found to be 0.0339 s⁻¹; at ACE2 (setting [2]) it was 0.0299 s⁻¹. In addition, the kon on SARS-CoV-2 RBD peptide came to 598 M⁻¹ s⁻¹; on ACE2 (setting [1]), 584 M⁻¹ s⁻¹.
With `C=C[C@H]1C[N@@]2CC[C@H]1C[C@H]2[C@H](O)c1ccnc2ccc(OC)cc12` [Quinine], the “interaction with the RBD” value at SARS-CoV-2 RBD peptide is given as “No interaction”. In addition, the association rate constant (kon) at ACE2 (setting [1]) is 877 M⁻¹ s⁻¹. At ACE2 (bio-layer interferometry), this compound returned a Kd of 9.35 µM. In addition, the koff at ACE2 (setting [2]) was 0.00819 s⁻¹.

Usually Kd stands for the concentration at which binding is half-saturated. A high value points to lower affinity. Usually kon stands for the rate constant with which the complex forms. As a reminder, the IC50 is the concentration that inhibits the measured activity by half.
